Measured values: paper PMC11714206, “Massively Parallel Screening of Toll/Interleukin‐1 Receptor (TIR)‐Derived Peptides Reveals Multiple Toll‐Like Receptors (TLRs)‐Targeting Immunomodulatory Peptides” (Advanced Science, 2024)
Each block holds one sequence with its values, some of them ahead of it.

Biological target: T1, MAL^TIR (Homo sapiens, UniProt P58753)
T1 construct: MAL (residues 79–221); 6xHis; made in house; host or cells: E. coli BL21 (DE3)
Assay: T‐Surf phage library (P8 and P3) selection against MAL^TIR, four rounds, NGS read counts
Type: binding
Conditions: for P8_MAL Rank (after) / P8_MAL Rank (before): P8 library; for P3_MAL Rank (after) / P3_MAL Rank (before): P3 library; for Population: P3_MAL pool: P3 T-Surf phage library, 4th round of selection against MAL TIR, share of NGS reads
Method: T‐Surf libraries were screened against the immobilized TIR domains of two major human TLR adaptor proteins, MAL^TIR and MyD88^TIR, allowing cross‐species selection of TIR‐binding motifs with 190 946 TIR‐derived peptides in a single binding assay (Scheme 1). Enriched phage pools from the fourth round of selection were analyzed using NGS after barcoding the peptide‐coding regions of the phage pools.
Phage display screening was performed by coating two wells of a 96‐well plate (Maxisorp, Thermo Fisher Scientific) with 100 µL of 5 µg mL^−1 TIR domains overnight; then, the coated wells were blocked with 200 µL of blocking buffer (0.2% BSA in PBS) and set aside for 1 h at 4 °C with gentle shaking. Next, 100 µL of the phage library was added to the wells and incubated for 1 h at room temperature (RT; 20 – 22 °C) with gentle shaking. The plate was washed four times with PBS containing 0.5% Tween‐20; the bound phages were eluted by adding 100 µL of 100 mM HCl to each well. The elute was neutralized with 10 µL of 1.0 M Tris‐HCl (pH 11.0). E. coli TG1 cells were grown to the log phase (A600 = ≈0.6), and 1 mL of the culture was incubated with 100 µL of the eluted phages for 30 min at 37 °C, with shaking at 200 rpm. Next, 1 µL of M13KO7 helper phages was added, followed by incubation for 45 min at 37 °C, with shaking. Subsequently, the cells were transferred to 25 mL of 2× yeast extract tryptone/carbenicillin/kanamycin medium and incubated overnight at 37 °C with shaking at 200 rpm. The amplified phages were precipitated with 20% PEG‐8000/2.5 M NaCl to be used for the next round of selection.
The naïve T‐Surf libraries in P8 and P3 and the enriched phage pools after four rounds were barcoded for NGS as previously described.^[ [59] ^] Briefly, 5 µL of the phage pool was used as a template for 20 cycles of a 50 µL PCR reaction using […] each of forward and reverse barcoded primers and PrimeSTAR Max DNA Polymerase. The PCR products were purified using Expin Gel SV (GeneAll). The NGS samples were quantified using qPCR, following the qPCR Quantification Protocol Guide (KAPA Library Quantification kits for Illumina Sequencing Platform), and qualified using the TapeStation High Sensitivity D1000 ScreenTape (Agilent Technologies). The indexed libraries were further sequenced by Macrogen (Seoul, Republic of Korea) using the NovaSeq platform (Illumina) with 100 bp paired‐end reads. The reads were demultiplexed by barcodes and filtered for an average Phred quality score of at least 30, followed by trimming the flanking consensus sequences using Cutadapt (version 2.3). Peptide sequence populations were analyzed according to the read counts.

[1] = 4R selection against MAL, rank after grouping
[2] = 4R selection against MAL, rank before grouping
[3] = selection against MAL, rank after grouping
[4] = selection against MAL, rank before grouping
[5] = P3_MAL: rank by count after grouping
[6] = P3_MAL: rank by count before grouping
[7] = selection against MAL, rank by count after grouping
[8] = selection against MAL, rank by count before grouping
[9] = selection against MAL TIR, rank by count after grouping
[10] = selection against MAL TIR, rank by count before grouping
[11] = P8_MAL: rank by count after grouping
[12] = P8_MAL: rank by count before grouping

T1 sequence (P58753 79-221): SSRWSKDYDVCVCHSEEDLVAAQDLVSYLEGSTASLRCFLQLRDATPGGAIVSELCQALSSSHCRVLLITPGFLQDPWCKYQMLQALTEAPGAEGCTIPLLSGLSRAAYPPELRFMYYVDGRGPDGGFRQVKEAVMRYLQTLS

Sequence: DFLNWFIALKSTVLET
P8_MAL Rank (after) [1]: 598 | P8_MAL Rank (before) [2]: 1976

Sequence: DFLSHLIEAFSRMHIN
P8_MAL Rank (after) [3]: 504 | P8_MAL Rank (before) [4]: 1972

Sequence: DFSHFWLFEAGGDAAI
P8_MAL Rank (after) [3]: 532 | P8_MAL Rank (before) [4]: 1981

Sequence: DLFLSKLSQHILKREK
Population: 0.00376%

Sequence: DQWRNALTAAANLSGW
Population: 0.00526%

Sequence: DSKLKKGESIAPALLR
P8_MAL Rank (after) [9]: 215 | P8_MAL Rank (before) [10]: 1986

Sequence: DTALTNSGFHIFRDNE
P3_MAL Rank (after) [7]: 689 | P3_MAL Rank (before) [8]: 1984

Sequence: DTILKKGESIAPELLG
P8_MAL Rank (after) [3]: 548 | P8_MAL Rank (before) [4]: 2000

Sequence: DTKLKKCESIAPELLL
P8_MAL Rank (after) [9]: 204 | P8_MAL Rank (before) [10]: 2014

Sequence: DTRYTFIAHLSHALNL
P8_MAL Rank (after) [1]: 651 | P8_MAL Rank (before) [2]: 2040

Sequence: DWCLSKLSQHTLKREK
Rank (after) [5]: 481 | Rank (before) [6]: 1908

Sequence: DWFLSHLRHHLQAKDH
Rank (after) [5]: 183 | Rank (before) [6]: 779

Sequence: DWFLSKLNQHLLKREK
Rank (after) [5]: 424 | Rank (before) [6]: 1898

Sequence: DWFLSKLSQHILKKG
Rank (after) [5]: 393 | Rank (before) [6]: 1892

Sequence: DWFLSKLSQHLLKRAK
P3_MAL Rank (after) [7]: 682 | P3_MAL Rank (before) [8]: 1882

Sequence: DWIREQLRPALKKRLP
P3_MAL Rank (after) [3]: 520 | P3_MAL Rank (before) [4]: 1989

Sequence: EFVLTFVINLTPRTSF
P8_MAL Rank (after) [3]: 576 | P8_MAL Rank (before) [4]: 2041

Sequence: EKIVEWVWEKAHNRFK
P3_MAL Rank (after) [7]: 770 | P3_MAL Rank (before) [8]: 2080

Sequence: EKIVEWVWGKVHRTFK
P8_MAL Rank (after) [9]: 207 | P8_MAL Rank (before) [10]: 896

Sequence: ELFLDQVLAVLVKPTM
P8_MAL Rank (after) [3]: 530 | P8_MAL Rank (before) [4]: 2042

Sequence: ELLLSVFMTLSAPRTV
P8_MAL Rank (after) [3]: 577 | P8_MAL Rank (before) [4]: 2043

Sequence: ERILNQLRRSSQSIAK
Rank (after) [5]: 421 | Rank (before) [6]: 2078

Sequence: ERLFSEPLNVNKDLLG
Rank (after) [5]: 434 | Rank (before) [6]: 2032

Sequence: ESIIYQLHRSSERVAN
P3_MAL Rank (after) [3]: 501 | P3_MAL Rank (before) [4]: 2075

Sequence: ESILDQLRRRSQSIAN
P3_MAL Rank (after) [1]: 591 | P3_MAL Rank (before) [2]: 2042

Sequence: ESILNQLRHHLQAKDH
Rank (after) [5]: 170 | Rank (before) [6]: 544

Sequence: ESILNQLRRSSESIAK
P3_MAL Rank (after) [9]: 211 | P3_MAL Rank (before) [10]: 2053

Sequence: ESILNQLRRSSQSFAT
P3_MAL Rank (after) [9]: 260 | P3_MAL Rank (before) [10]: 2056

Sequence: ESILNQLRRSSQSMR
P3_MAL Rank (after) [9]: 202 | P3_MAL Rank (before) [10]: 2061

Sequence: ESILNQRRPSSQSIAN
P3_MAL Rank (after) [1]: 595 | P3_MAL Rank (before) [2]: 2071

Sequence: EWIREQLRRSSQSIAN
P3_MAL Rank (after) [9]: 222 | P3_MAL Rank (before) [10]: 801

Sequence: EWIREQMSPALKERLP
P3_MAL Rank (after) [1]: 617 | P3_MAL Rank (before) [2]: 2023

Sequence: EYRNESKFIWDIINAI
Rank (after) [11]: 386 | Rank (before) [12]: 2047

Sequence: FAFTGQMLRYMVRSGL
P3_MAL Rank (after) [7]: 717 | P3_MAL Rank (before) [8]: 1132

Sequence: FDRFHIYFLHFLLFSR
P8_MAL Rank (after) [7]: 680 | P8_MAL Rank (before) [8]: 1087

Sequence: FISHLYAALQRKHVET
Rank (after) [5]: 96 | Rank (before) [6]: 96

Sequence: FLNFRAWMCVTIFWA
P3_MAL Rank (after) [7]: 677 | P3_MAL Rank (before) [8]: 1176

Sequence: FLNFRGLDVRNYFLA
Rank (after) [5]: 408 | Rank (before) [6]: 1158

Sequence: FLNFRGLVVRNYFLVH
P3_MAL Rank (after) [7]: 720 | P3_MAL Rank (before) [8]: 1146

Sequence: FLNWPRNPKEHRHFWH
P3_MAL Rank (after) [9]: 241 | P3_MAL Rank (before) [10]: 1181

Sequence: FMSHLRHHLQAKDH
Rank (after) [5]: 166 | Rank (before) [6]: 709

Sequence: FMSHLYQGLKNRGI
Rank (after) [5]: 165 | Rank (before) [6]: 499

Sequence: FMSHLYQGLLKGLIIT
P3_MAL Rank (after) [7]: 681 | P3_MAL Rank (before) [8]: 1202

Sequence: FTLAVQVRNLLVGAFI
P8_MAL Rank (after) [9]: 262 | P8_MAL Rank (before) [10]: 1099

Sequence: GCLYQAFARAGFKIFM
P3_MAL Rank (after) [7]: 707 | P3_MAL Rank (before) [8]: 1752

Sequence: GFLYQAFAREGLQIFM
Rank (after) [5]: 164 | Rank (before) [6]: 1739

More lines, now with the values ahead:

P3_MAL Rank (after) [3]: 492 | P3_MAL Rank (before) [4]: 1922
Sequence: DHHLDLPLAKRLNRKFW

Rank (after) [5]: 442 | Rank (before) [6]: 1951
Sequence: DHHLNPPPGKAIKPEMLG

P3_MAL Rank (after) [1]: 655 | P3_MAL Rank (before) [2]: 1960
Sequence: DIQSSRLKDDADLVGQ

Rank (after) [5]: 455 | Rank (before) [6]: 1861
Sequence: DLFLSKLSQHLLKREK

P8_MAL Rank (after) [7]: 717 | P8_MAL Rank (before) [8]: 1982
Sequence: DLLNGFIALKSTVIEN

P8_MAL Rank (after) [3]: 493 | P8_MAL Rank (before) [4]: 1991
Sequence: DPKLNTGESIAPELLR

P8_MAL Rank (after) [9]: 234 | P8_MAL Rank (before) [10]: 876
Sequence: DPQDLEWFYERLFSQM

Rank (after) [11]: 447 | Rank (before) [12]: 1990
Sequence: DPQDLQWFYERLVSLI

P3_MAL Rank (after) [9]: 201 | P3_MAL Rank (before) [10]: 1953
Sequence: DQCRNALTAAANLSGW

P3_MAL Rank (after) [7]: 687 | P3_MAL Rank (before) [8]: 1963
Sequence: DSHSSRFKEDAELGGQ

Rank (after) [11]: 157 | Rank (before) [12]: 877
Sequence: DSLFWDRLLYSLHVTE

P8_MAL Rank (after) [1]: 659 | P8_MAL Rank (before) [2]: 1999
Sequence: DTILKKGEGIAPELLR

P3_MAL Rank (after) [7]: 722 | P3_MAL Rank (before) [8]: 1886
Sequence: DWFLSKLSQHILRHEK

P3_MAL Rank (after) [7]: 718 | P3_MAL Rank (before) [8]: 1894
Sequence: DWFLSKLSQHSLKLEK

Rank (after) [5]: 125 | Rank (before) [6]: 787
Sequence: DWFREQLRPALKERLP

P3_MAL Rank (after) [7]: 729 | P3_MAL Rank (before) [8]: 1862
Sequence: DWFVSKLSQQILQREK

P3_MAL Rank (after) [3]: 485 | P3_MAL Rank (before) [4]: 1909
Sequence: DWSLSKLSQHFLKREK

P8_MAL Rank (after) [3]: 569 | P8_MAL Rank (before) [4]: 2048
Sequence: ELDFSHFWLFDGEAGGEP

P3_MAL Rank (after) [1]: 598 | P3_MAL Rank (before) [2]: 2037
Sequence: ESGKLASGAGKSGQT

P3_MAL Rank (after) [3]: 516 | P3_MAL Rank (before) [4]: 2047
Sequence: ESILNHPRRSSQILSN

P3_MAL Rank (after) [3]: 542 | P3_MAL Rank (before) [4]: 2054
Sequence: ESILNQLRRSSHSISN

P3_MAL Rank (after) [1]: 597 | P3_MAL Rank (before) [2]: 2045
Sequence: ESILTKLRRSSQSIAN

Rank (after) [5]: 452 | Rank (before) [6]: 1992
Sequence: EWILDTEARIWGWRQA

Population: 0.00338%
Sequence: FAFTGHLHRYLVQRGV

P8_MAL Rank (after) [3]: 560 | P8_MAL Rank (before) [4]: 1088
Sequence: FLNFRGLDVRNYFLGH

P3_MAL Rank (after) [1]: 628 | P3_MAL Rank (before) [2]: 1147
Sequence: FLNFRGLGGRNYFLGH

Rank (after) [5]: 462 | Rank (before) [6]: 1145
Sequence: FLNFRGLYVRNYFLGP

P3_MAL Rank (after) [1]: 601 | P3_MAL Rank (before) [2]: 1134
Sequence: FLSHLHRYLVQRGV

P3_MAL Rank (after) [3]: 523 | P3_MAL Rank (before) [4]: 1204
Sequence: FMSHLYQGLKIVAFL

Rank (after) [5]: 113 | Rank (before) [6]: 201
Sequence: FMSHLYQGLKNRGIFTF

P3_MAL Rank (after) [3]: 546 | P3_MAL Rank (before) [4]: 1200
Sequence: FMSHLYRYLVQRGV

P8_MAL Rank (after) [1]: 606 | P8_MAL Rank (before) [2]: 1091
Sequence: FTLSVHVRNWLAGAFI

Rank (after) [11]: 121 | Rank (before) [12]: 1571
Sequence: GCYERLVSLILRDTKV

P8_MAL Rank (after) [9]: 263 | P8_MAL Rank (before) [10]: 1567
Sequence: GFFERLVRMILRDTKV

Rank (after) [5]: 127 | Rank (before) [6]: 275
Sequence: GFLSHLRHHLQAKDH

P8_MAL Rank (after) [9]: 281 | P8_MAL Rank (before) [10]: 1569
Sequence: GFYERQVSLVLGDTKV

P3_MAL Rank (after) [7]: 749 | P3_MAL Rank (before) [8]: 1758
Sequence: GGFLSHLFDAFSVSR
